Assay results taken from ChEMBL document CHEMBL5620415, “Design, synthesis and anti-hepatic fibrosis activity of novel diphenyl vitamin D receptor agonists” (Eur J Med Chem, 2023).
pIC50: −log10 of the molar value. Active and inactive are the calls of the source. No cut-off for these calls is given here.

Assays:
Mus musculus [1] = experiment: Anti-fibrotic effect in improving CCl4-induced hepatic fibrosis C57BL/6 mouse model assessed as inhibition of Ctgf expression in liver at 500 ug/kg, po five times a week for 2 weeks by RT-qPCR analysis; format: functional, organism-based; conditions: dose 500.0 µg/kg
Mus musculus [2] = experiment: Anti-fibrotic effect in CCl4-induced hepatic fibrosis C57BL/6 mouse model assessed as inhibition of serum ALT level at 500 ug/kg, po five times a week for 2 weeks; format: functional, organism-based; conditions: dose 500.0 µg/kg
Mus musculus [3] = experiment: Anti-fibrotic effect in CCl4-induced hepatic fibrosis C57BL/6 mouse model assessed as inhibition of serum total bile acid (TBA) level at 500 ug/kg, po five times a week for 2 weeks; format: functional, organism-based; conditions: dose 500.0 µg/kg
Mus musculus [4] = experiment: Anti-fibrotic effect in bile duct ligation (BDL) surgery-induced hepatic fibrosis C57BL/6 mouse model assessed as decrease in inflammatory cell infiltration at 500 ug/kg, po five times a week for 2 weeks by Masson's Trichrome staining based assay; format: functional, organism-based; conditions: dose 500.0 µg/kg
[5] = Toxicity in bile duct ligation (BDL) surgery-induced hepatic fibrosis C57BL/6 mouse model assessed as serum hypercalcemia at 500 ug/kg, po five times a week for 2 weeks by calcium assay kit; format: organism-based; conditions: in vivo, 0.5 mg/kg, 336 h, dose 500 µg/kg
[6] = Cytotoxicity against human LX-2 cells by CCK-8 assay; format: toxicity, cell-based
Mus musculus [7] = experiment: Anti-fibrotic effect in CCl4-induced hepatic fibrosis C57BL/6 mouse model assessed as inhibition of collagen deposition at 500 ug/kg, po five times a week for 2 weeks by Hematoxylin-Eosin (H&E) staining based assay; format: functional, organism-based; conditions: dose 500.0 µg/kg
Mus musculus [8] = experiment: Anti-fibrotic effect in bile duct ligation (BDL) surgery-induced hepatic fibrosis C57BL/6 mouse model assessed as inhibition of serum AST level at 500 ug/kg, po five times a week for 2 weeks; format: functional, organism-based; conditions: dose 500.0 µg/kg
Mus musculus [9] = experiment: Anti-fibrotic effect in bile duct ligation (BDL) surgery-induced hepatic fibrosis C57BL/6 mouse model assessed as inhibition of Ctgf expression in liver at 500 ug/kg, po five times a week for 2 weeks by RT-qPCR analysis; format: functional, organism-based; conditions: dose 500.0 µg/kg
Mus musculus [10] = experiment: Anti-fibrotic effect in bile duct ligation (BDL) surgery-induced hepatic fibrosis C57BL/6 mouse model assessed as inhibition of serum ALT level at 500 ug/kg, po five times a week for 2 weeks; format: functional, organism-based; conditions: dose 500.0 µg/kg

SMILES: OCc1ccc(/C=C/c2ccc(OCCCC(F)(F)F)cc2)cc1CO
- Activity (Mus musculus [1]): Active
- Activity (Mus musculus [2]): Active
- Activity (Mus musculus [3]): Active
- Activity (Mus musculus [4]): Active
- Activity [5]: Non-Toxic
- pIC50 [6]: < 4.52
- Activity (Mus musculus [7]): Active
- Activity (Mus musculus [8]): Active
- Activity (Mus musculus [9]): Active
- Activity (Mus musculus [10]): Active
